Results: US8323704B2, “Process for preparation of extract of Decalepis hamiltonii having antioxidant activity” (Council of Scientific and Industrial Research, priority 2003, dated 2012)

Tests used:
[1] = Antioxidant assay using β-Carotene Linoleate model System (β CLAMS); assay type: biochemical; conditions: bleaching of β carotene, 180 min, 50° C.
Source text: Antioxidant assay using β-Carotene Linoleate model System (β CLAMS) (Hidalgo et al., 1994)
This is one of the rapid methods to screen antioxidants, which is mainly based on principle that Linoleic acid which is an unsaturated fatty acid gets oxidized by “Reactive Oxgen Species” (ROS) produced by oxygenated water. The products formed will initiate the β-Carotene oxidation, which leads to discoloration.
Due to insolubility of β-Carotene in water, it is first made into emulsion. β-Carotene is dissolved in chloroform and using Tween-40 (Polyoxyethylene sorbotan manonitrate) as surfactant, it was mixed with Linoleic acid to form emulsion. The resulting mixture is diluted with triple distilled water (1 part) and mixed well. This emulsion is further made up with oxygenated water (4 parts) which initiates the process of oxidation immediately. It is transferred to tubes containing samples. Initial (zero min) reading is read, followed by recording the absorbance at 15 min intervals at 470 nm. All tubes were placed in water bath at 50° C. throughout the experiment.
β Carotene linoleic acid emulsion mixture—100 ml (Jayaprakash et al., 2000) […]
[…] Absorbance of all samples were taken at 470 nm at Zero time and tubes were placed at 50° C. in water bath., Measurement of Absorbance was continued at an interval of 15 minutes, till the colour of β carotene disappeared in the control reaction (t=180 min). […] Dose response of antioxidant activity for various extracts was determined at different concentrations.
The antioxidant activity (% AA) of extracts was evaluated in terms of bleaching of β Carotene using the following formula (Hidalgo et al, 1994).
Each experiment was carried out in triplicate and the deviation of absorbance value was less than 10%. % AA=100[1-(A^0-A^t)/A^00-A^0t)] […]
A^0=Zero time absorbance of sample
A^t=Absorbance of sample after incubation for 180 min
A^00=Zero time absorbance of control
A^t0=Absorbance of control after incubation for 180 min.
And results were expressed as % Antioxidant activity.

[2] = Free radical scavenging activity using D.P.P.H as stable free radical; assay type: biochemical; conditions: 20 minutes, 517 nm
Experimental: Schematic representation of chemically stable radical scavenging activity using D.P.P.H as stable free radical: (Blios, 1958)
Free radical scavenging potentials of the extracts were tested against a methanolic solution of α,α-diphenyl-β-picryl hydrazyl (D.P.P.H). Antioxidants reacts with D.P.P.H. and convert it to α,α-diphenyl-β-picryl hydrazine. The degree of discoloration indicates the scavenging potentials of the antioxidant extract. The change in the absorbance produced at 517 nm has been used as a measure of antioxidant activity.
• Methanolic solution of D.P.P.H (100 μM): 39.4 mg of D.P.P.H was dissolved in one liter of analytical grade methanol. • Preparation of the extract solutions: 55 mg of the extract was dissolved in 10 ml of methanol and filtered; the filtrate was used for the experiments. Method:
Aliquots of 0.025, 0.05, 0.1 ml of extracts and standard were taken in different test tubes. To this 5 ml of methanolic solution of D.P.P.H was added, shaken well and the mixture was allowed to stand at room temperature for 20 minutes. The blank was prepared as above without extract. […] The absorbance of blank was first noted at 517 nm. The change of absorbance of the samples was measured.
Scavenging activity was expressed as the inhibition percentage calculated using the following formula, […]

For `COc1ccc(O)c(C(C)(C)C)c1` [Standard BHA, butylated hydroxy anisole], the “% Activity ± S.D (antioxidant activity, % AA)” value ([1]; 100 ppm) was 84.3%, the “% Activity ± S.D (antioxidant activity, % AA)” value ([1]; 500 ppm) was 88.6% and the “% Activity ± S.D (antioxidant activity, % AA)” value ([1]; 1000 ppm) was 90.1%.

With “α,α-diphenyl-β-picryl hydrazyl [Standard D.P.P.H]” the “% Activity ± S.D (anti-radical activity, inhibition percentage)” value ([2]; 100 ppm) was 88.3%, the “% Activity ± S.D (anti-radical activity, inhibition percentage)” value ([2]; 500 ppm) was 92.6% and the “% Activity ± S.D (anti-radical activity, inhibition percentage)” value ([2]; 1000 ppm) was 94.3%.
